Results as given in patent US10233182B2, “Substituted spirocyclic inhibitors of autotaxin” (X-Rx, Inc., priority 2014, dated 2019).

Biological target: Autotaxin (Homo sapiens (Human), UniProt Q13822)
Assay: Autotaxin LPC Cascade Assay
Assay type: biochemical
Details: Autotaxin 5 nM, LPC 100 μM, choline oxidase/HRP/Ampliflu Red fluorescence read-out, 2% DMSO, RT; read-out: IC50 ATX Activity
Outline: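 Choline liberated from LPC by autotaxin during 1 h, after a 10-min RT compound preincubation, was converted through choline oxidase/HRP to a fluorescent Ampliflu Red product.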

`Cc1cccc(C(=O)N[C@@H](C(=O)N2CCC3(CC2)C(=O)N(C)CN3c2ccc(C#N)cc2)C(C)C)c1F` [Example 179, (R)—N-(1-(1-(4-Cyanophenyl)-3-methyl-4-oxo-1,3,8-triazaspiro[4.5]decan-8-yl)-3-methyl-1-oxobutan-2-yl)-2-fluoro-3-methylbenzamide] and `Cc1cccc(C(=O)N[C@@H](C(=O)N2CCC3(CC2)C(=O)N(C)CN3c2ccc(Cl)cc2)C(C)C)c1` [Example 193, (R)—N-(1-(1-(4-Chlorophenyl)-3-methyl-4-oxo-1,3,8-triazaspiro[4.5]decan-8-yl)-3-methyl-1-oxobutan-2-yl)-3-methylbenzamide] cannot be ordered by IC50: < 500 nM for the first, < 500 nM for the second.

`CC(C)[C@@H](NC(=O)c1cc(C(F)(F)F)ccc1F)C(=O)N1CCC2(CC1)C(=O)N(C)C(=O)N2c1ccc(Cl)cc1` [Example 181, (R)—N-(1-(1-(4-Chlorophenyl)-3-methyl-2,4-dioxo-1,3,8-triazaspiro[4.5]decan-8-yl)-3-methyl-1-oxobutan-2-yl)-2-fluoro-5-(trifluoromethyl)benzamide] and `CC(C)[C@@H](NC(=O)c1cc(C(F)(F)F)ccc1F)C(=O)N1CCC2(CC1)C(=O)N(C)C(=O)N2c1ccc(F)cc1` [Example 182, (R)-2-Fluoro-N-(1-(1-(4-fluorophenyl)-3-methyl-2,4-dioxo-1,3,8-triazaspiro[4.5]decan-8-yl)-3-methyl-1-oxobutan-2-yl)-5-(trifluoromethyl)benzamide] cannot be ordered by IC50: < 500 nM for the first, < 500 nM for the second.

`CC(C)[C@@H](NC(=O)c1cc(C(F)(F)F)ccc1F)C(=O)N1CCC2(CC1)C(=O)N(C)C(=O)N2c1ccc(Cl)c(Cl)c1` [Example 183, (R)—N-(1-(1-(3,4-Dichlorophenyl)-3-methyl-2,4-dioxo-1,3,8-triazaspiro[4.5]decan-8-yl)-3-methyl-1-oxobutan-2-yl)-2-fluoro-5-(trifluoromethyl)benzamide] and `CC(C)[C@@H](NC(=O)c1cc(C(F)(F)F)ccc1F)C(=O)N1CCC2(CC1)C(=O)N(C)C(=O)N2c1cccc(Cl)c1` [Example 187, (R)—N-(1-(1-(3-Chlorophenyl)-3-methyl-2,4-dioxo-1,3,8-triazaspiro[4.5]decan-8-yl)-3-methyl-1-oxobutan-2-yl)-2-fluoro-5-(trifluoromethyl)benzamide] cannot be ordered by IC50: < 500 nM for the first, < 500 nM for the second.

`Cc1ccc(N2C(=O)N(C)C(=O)C23CCN(C(=O)[C@H](NC(=O)c2cc(C(F)(F)F)ccc2F)C(C)C)CC3)cc1` [Example 184, (R)-2-Fluoro-N-(3-methyl-1-(3-methyl-2,4-dioxo-1-p-tolyl-1,3,8-triazaspiro[4.5]decan-8-yl)-1-oxobutan-2-yl)-5-(trifluoromethyl)benzamide] and `CC(C)[C@@H](NC(=O)c1cc(C(F)(F)F)ccc1F)C(=O)N1CCC2(CC1)C(=O)N(C)C(=O)N2c1ccc(C(F)(F)F)cc1` [Example 186, (R)-2-Fluoro-N-(3-methy-1-(3-methyl-2,4-dioxo-1-(4-(trifluoromethyl)phenyl)-1,3,8-triazaspiro[4.5]decan-8-yl)-1-oxobutan-2-yl)-5-(trifluoromethyl)benzamide] cannot be ordered by IC50: < 500 nM for the first, < 500 nM for the second.

`CC(C)[C@@H](NC(=O)c1cc(C(F)(F)F)ccc1F)C(=O)N1CCC2(CC1)C(=O)N(C)C(=O)N2c1ccc2[nH]ccc2c1` [Example 185, (R)—N-(1-(1-(1H-Indol-5-yl)-3-methyl-2,4-dioxo-1,3,8-triazaspiro[4.5]decan-8-yl)-3-methyl-1-oxobutan-2-yl)-2-fluoro-5-(trifluoromethyl)benzamide] and `[2H]c1ccc(N2C(=O)N(C)C(=O)C23CCN(C(=O)[C@H](NC(=O)c2cc(C(F)(F)F)ccc2F)C(C)C)CC3)cc1` [Example 190] cannot be ordered by IC50: < 500 nM for the first, < 500 nM for the second.

`CC(C)[C@@H](NC(=O)c1cc(C(F)(F)F)ccc1F)C(=O)N1CCC2(CC1)C(=O)N(C)C(=O)N2c1ccccn1` [Example 188, (R)-2-Fluoro-N-(3-methyl-1-(3-methyl-2,4-dioxo-1-(pyridin-2-yl)-1,3,8-triaza-spiro[4.5]decan-8-yl)-1-oxobutan-2-yl)-5-(trifluoromethyl)benzamide] and `CC(C)[C@@H](NC(=O)c1cc(C(F)(F)F)ccc1F)C(=O)N1CCC2(CC1)C(=O)N(C)C(=O)N2c1cccnc1` [Example 189, (R)-2-Fluoro-N-(3-methyl-1-(3-methyl-2,4-dioxo-1-(pyridin-3-yl)-1,3,8-triaza-spiro[4.5]decan-8-yl)-1-oxobutan-2-yl)-5-(trifluoromethyl)benzamide] fall in the same range of IC50: 500 to 1000 nM for the first, 500 to 1000 nM for the second.

`CC(C)[C@@H](NC(=O)c1cc(C(F)(F)F)ccc1F)C(=O)N1CCC2(CC1)C(=O)N(C)C(=O)N2c1ccc2c(c1)OCO2` [Example 191, (R)—N-(1-(1-(Benzo[d][1,3]dioxol-5-yl)-3-methyl-2,4-dioxo-1,3,8-triazaspiro[4.5]decan-8-yl)-3-methyl-1-oxobutan-2-yl)-2-fluoro-5-(trifluoromethyl)benzamide] and `Cc1cccc(C(=O)N[C@@H](C(=O)N2CCC3(CC2)C(=O)N(C)CN3c2cccc(Cl)c2)C(C)C)c1` [Example 192, (R)—N-(1-(1-(3-Chlorophenyl)-3-methyl-4-oxo-1,3,8-triazaspiro[4.5]decan-8-yl)-3-methyl-1-oxobutan-2-yl)-3-methylbenzamide] cannot be ordered by IC50: < 500 nM for the first, < 500 nM for the second.

`Cc1cccc(C(=O)N[C@@H](C(=O)N2CCC3(CC2)C(=O)N(C)CN3c2cccc(Br)c2)C(C)C)c1` [Example 194, (R)—N-(1-(1-(3-Bromophenyl)-3-methyl-4-oxo-1,3,8-triazaspiro[4.5]decan-8-yl)-3-methyl-1-oxobutan-2-yl)-3-methylbenzamide] and `COc1cccc(N2CN(C)C(=O)C23CCN(C(=O)[C@H](NC(=O)c2cccc(C)c2)C(C)C)CC3)c1` [Example 198, (R)—N-(1-(1-(3-Methoxyphenyl)-3-methyl-4-oxo-1,3,8-triazaspiro[4.5]decan-8-yl)-3-methyl-1-oxobutan-2-yl)-3-methylbenzamide] cannot be ordered by IC50: < 500 nM for the first, < 500 nM for the second.

Going from `Cc1cccc(C(=O)N[C@@H](C(=O)N2CCC3(CC2)C(=O)N(C)CN3c2cccnc2)C(C)C)c1` [Example 195, (R)-3-Methyl-N-(3-methyl-1-(3-methyl-4-oxo-1-(pyridin-3-yl)-1,3,8-triazaspiro[4.5]decan-8-yl)-1-oxobutan-2-yl)benzamide] to `Cc1cccc(C(=O)N[C@@H](C(=O)N2CCC3(CC2)C(=O)N(C)CN3c2ccc(Br)cc2)C(C)C)c1` [Example 199, (R)—N-(1-(1-(4-Bromophenyl)-3-methyl-4-oxo-1,3,8-triazaspiro[4.5]decan-8-yl)-3-methyl-1-oxobutan-2-yl)-3-methylbenzamide], the IC50 falls from ≥ 1000 nM to < 500 nM. The second is the more potent here.

`Cc1cccc(C(=O)N[C@@H](C(=O)N2CCC3(CC2)C(=O)N(C)CN3c2ccccc2Cl)C(C)C)c1` [Example 196, (R)—N-(1-(1-(2-Chlorophenyl)-3-methyl-4-oxo-1,3,8-triazaspiro[4.5]decan-8-yl)-3-methyl-1-oxobutan-2-yl)-3-methylbenzamide] and `COc1ccc(N2CN(C)C(=O)C23CCN(C(=O)[C@H](NC(=O)c2cccc(C)c2)C(C)C)CC3)cc1` [Example 197, (R)—N-(1-(1-(4-Methoxyphenyl)-3-methyl-4-oxo-1,3,8-triazaspiro[4.5]decan-8-yl)-3-methyl-1-oxobutan-2-yl)-3-methylbenzamide] cannot be ordered by IC50: < 500 nM for the first, < 500 nM for the second.
